Source: patent publication US20100210540A1, “USE OF THE PEPTIDE COMBINATION THYMOSIN BETA 4 AND DELTA SLEEP INDUCING PEPTIDE AS A THERAPEUTIC AGENT” (priority 2007, published 2010)
Where no end group is shown, it is not given here.

Experiments:
HIV-1III8 = assay: HIV-1 antiviral assay in CEM-SS cells (MTS readout)
Interleukin-5 (IL-5) = assay: Th1/Th2 cytokine profiling assay: IL-5; type: cell-based, Balb/c mice; conditions: 10 micrograms per ml; Ovalbumin restimulation; 72 hours
From the text: (§1) The Balb/c mice (originated in 1923, it is a popular strain and is used in many different research disciplines. Also classified as an inbred from the production of 20 or more successive brother-sister matings, the Balb/c mouse is albino and small in size) were immunized on Days 1, 15, and 29 with Ovalbumin (Ovalbumin is the main protein found in egg white, commonly used to stimulate an immunological reaction in test animals) in PBS (5 micrograms/injection). On day 50, spleens of the mice were harvested (3 weeks after last boost with Ovalbumin). Cells were cultured (2×10^5/well in triplicate) and incubated with culture medium or test peptides—10 micrograms per ml—for 30 min. Thereafter, additional Ovalbumin was added to the cells at 10 micrograms/ml for in vitro restimulation of the cells. 72 hours later, cell supernatants were harvested and assayed using the Becton Dickinson Mouse Th1fTh2 Cytokine CBA Kit. This kit can be used to measure Interleukin-2 (IL-2), Interleukin-4 (IL-4), Interleukin-5 (IL-5), Interferon-γ (IFN-γ), and Tumor Necrosis Factor-α (TNF-α) protein levels in a single sample. The kit performance has been optimized for analysis of physiologically relevant concentrations (pg/ml levels) of specific cytokine proteins in tissue culture supernatants and serum samples.

[1] = test system: cyclic AMP generation in human peripheral blood mononuclear cells (PBMC); assay: cAMP induction assay (ELISA); type: cell-based; conditions: 10 micrograms per ml; 10 min at 37° C.
From the text: Adenosine 3′,5′-cyclic monophosphate (cyclic AMP; cAMP) is one of the most important “second messengers” involved as a modulator of physiological processes. cAMP is also involved in regulating neuronal, glandular, cardiovascular, immune and other functions and actions in a regulatory way. For being a second messenger, cAMP has the following characteristics to work effectively: 1) Amplification—when a few peptide molecules signal the cell, it needs to respond with a signal that is strong enough to get a job done without repeated high levels of stimulation. 2) Control—eventually a response must be shut down, and there are instances when its necessary to respond a little or a lot—so control is needed. 3)—Specificity—when a peptide is utilized, a given cell should respond in a specific way. Not all cells will respond to this peptide and therefore they cannot have the same effect in all the cells. Elevated levels of cAMP in human cells are associated with the suppression of cell activation.
The cAMP kit was used as an immunoassay for the quantitative determination of cyclic AMP generation in human peripheral blood mononuclear cells (PBMC). […]; 50 micrograms per ml), or test peptides—10 micrograms per ml—were added. […]. NaOH was added to neutralize the samples. Plates were centrifuged for 15 min at 2500 rpm and the supernatants removed. […]

HCMV strain AD169 = assay: HCMV plaque formation assay in MRC-5 cells; type: cell-based; conditions: for inhibition of HCMV plaque formation as compared to the virus control experiment: 10 micrograms per ml, 7-10 days
From the text: Ganciclovir was used as positive control.

Interferon-γ (IFN-γ) = assay: Th1/Th2 cytokine profiling assay: IFN-γ; type: cell-based, Balb/c mice; conditions: 10 micrograms per ml; Ovalbumin restimulation; 72 hours
From the text: as §1

HUVEC = assay: Endothelial tube formation assay; type: cell-based, human; conditions: 10 micrograms per ml, 20 hours
From the text: Positive control was vehicle only.

[2] = test system: Tumor Necrosis Factor-α (TNF-α); assay: Th1/Th2 cytokine profiling assay: TNF-α; type: cell-based, Balb/c mice; conditions: 10 micrograms per ml; Ovalbumin restimulation; 72 hours
From the text: as §1

[3] = test system: hepatitis B virus (HBV) ayw strain; assay: HBV experimental assay system (secreted HBV DNA, TaqMan PCR); type: cell-based; conditions: 10 micrograms per ml; HepG2-2.2.15 cells; six days
RAW 264.7 cells = assay: Phagocytosis assay (Fluorescein-labeled Escherichia coli, flow cytometry); type: cell-based, Mouse; conditions: 10 micrograms per ml
Description: RAW 264.7 (Mouse leukaemic monocyte macrophage cell line) cells were obtained from ATCC and grown in RPMI 1640 medium containing 10% FBS. Cells were incubated in 12×75 mm tubes at 37° C. with test peptides—10 micrograms per ml—for 30 min prior to adding Fluorescein-labeled Escherichia coli bacteria as the agent to be ingested. After the cells were incubated for additional 60 min at 37° C. and allowed to ingest the Fluorescein-labeled Escherichia coli bacteria, cells were fixed with 1% paraformaldehyde. The samples were then analyzed by flow cytometry to determine the amount of phagocytosis as a function of brightness (the greater the phagocytic activity, the more fluorescence in the macrophage population). Data are reported as % positive and the mean fluorescence intensity (MFI) of positively stained cells.

Interleukin-4 (IL-4) = assay: Th1/Th2 cytokine profiling assay: IL-4; type: cell-based, Balb/c mice; conditions: 10 micrograms per ml; Ovalbumin restimulation; 72 hours
From the text: as §1

[4] = Th1/Th2 cytokine profiling assay: IL-2; type: cell-based, Balb/c mice; conditions: 10 micrograms per ml; Ovalbumin restimulation; 72 hours
From the text: as §1

[5] = test system: Primary Human endothelial cells (HUVEC); assay: Endothelial cell migration assay; type: cell-based; conditions: 10 micrograms per ml, 22 hours
Description: Thereafter, designated concentration of testing peptides—10 micrograms per ml—was added in duplicate wells.

Row | Compound | antiviral activity of positive control compounds (HIV-1III8) | production of IL-5 in murine spleen cells (change) (Interleukin-5 (IL-5)) | cAMP formation in PBMC (induced by) [1] | inhibition of HCMV plaque formation as compared to the virus control experiment (HCMV strain AD169) [%] | production of IFN-γ in murine spleen cells (decreased by) (Interferon-γ (IFN-γ)) [%] | inhibition of the tube formation of human endothelial cells (HUVEC) [%] | production of TNF-alpha in murine spleen cells (change) [2] | inhibition of HBV replication on tested liver cells [3] | production of IL-4 in murine spleen cells (induced by) (Interleukin-4 (IL-4)) [%] | production of IL-2 in murine spleen cells (induced by) [4] | other results
1 | Cc1cn([C@H]2C[C@H](N=[N+]=[N-])[C@@H](CO)O2)c(=O)[nH]c1=O [AZT] | expected levels of antiviral activity | – | – | – | – | – | – | – | – | – | –
2 | Trp-Ala-Gly-Gly-Asp-Ala-Ser-Gly-Glu-OH (WAGGDASGE-OH) [Peptide 2] | – | did not significantly change | no effects | 4.4 | 40.8 | 3 | did not significantly change | no effect | 70.6 | 38.1% | inhibitory effects on the phagocytic activity of murine macrophages (RAW 264.7 cells): no inhibitory effects
3 | Ac-Ser-Asp-Lys-Pro-Asp-Met-Ala-Glu-Ile-Glu-Lys-Phe-Asp-Lys-Ser-Lys-Leu-Lys-Lys-Thr-Glu-Thr-Gln-Glu-Lys-Asn-Pro-Leu-Pro-Ser-Lys-Glu-Thr-Ile-Glu-Gln-Glu-Lys-Gln-Ala-Gly-Glu-Ser-OH (SDKPDMAEIEKFDKSKLKKTETQEKNPLPSKETIEQEKQAGES; printed: Ser-Asp-Lys-Pro-Asp-Met-Ala-Glu-Ile-Glu-Lys-Phe-Asp-Lys-Ser-Lys-Leu-Lys-Lys-Thr-Glu-Thr-Gln-Glu-Lys-Asn-Pro-Leu-Pro-Ser-Lys-Glu-Thr-Ile-Glu-Gln-Glu-Lys-Gln-Ala-Gly-Glu-Ser-) [Peptide 1] | – | did not significantly change | 15.8% | 1.0 | 52.7 | 23 | did not significantly change | no effect | 31.6 | did not significantly change | inhibition of the migration of human endothelial cells [5]: 3%; phagocytosis induced, as compared to the control experiment (RAW 264.7 cells; 30 min preincubation, 60 min ingestion): 45.7%
4 | CC(C)(C)NC(=O)[C@@H]1CN(Cc2cccnc2)CCN1C[C@@H](O)C[C@@H](Cc1ccccc1)C(=O)N[C@H]1c2ccccc2C[C@H]1O [indinavir] | expected levels of antiviral activity | – | – | – | – | – | – | – | – | – | –
5 | Nc1nc(O)c2ncn(COC(CO)CO)c2n1 [Ganciclovir, reference compound] | – | – | – | – | – | – | – | – | – | – | antiviral activity of positive control compound (HCMV strain AD169; positive control): expected levels of antiviral activity
